Where no end group is shown, it is not given here.
Legend:
[1] = target: T1, HN (self-dimerization) (Homo sapiens, UniProt Q8IVG9); assay: Dimerization experiment (Ni-bead precipitation of FLAG-tagged peptide by (His)6-tagged peptide); format: binding; settings: excess amounts of competitor
T1 construct: host or cells: chemically synthesised peptide (no expression host)
Method: (§1) Synthetic (His)6-tagged HN derivative peptides (1 nmol) was incubated with 20 μl of Ni-NTA agarose (QIAGEN, Hilden, Germany) in a total volume of 0.5 ml of buffer A [20 mM Tris/HCl (pH8.0) and 1 mM DTT] for 1 hr at 4° C. and washed once with buffer B [20 mM Tris/HCl (pH 7.4), 1 mM DTT, and 150 mM NaCl]. Synthetic FLAG-tagged peptides (1 nmol) were mixed with the beads immobilizing (His)6-tagged peptides in a total volume of 0.5 ml of buffer B for 2 hr at 4° C. on a rotating shaker, and washed three times with buffer B. The washed beads were mixed with 20 μl of 2× sampling buffer [100 mM Tris/HCl (pH6.8), 200 mM DTT, 4% (w/v) SDS, 0.2% bromophenol blue, and 20% (v/v) glycerol] and boiled. The supernatant was submitted to Tris/Tricine SDS-PAGE, followed by immunoblotting analysis with 1/5000 anti-FLAG monoclonal antibody M2 (Sigma).

[2] = system: primary cultured neurons treated with 25 μM Aβ1-43; settings: as described previously [16]; read-out: IC50 of the HNG action against Aβ1-43-induced neuronal death; cited from earlier work
[3] = system: Aβ and four FAD genes (V642I-APP, NL-APP, M146L-PS1, and N141I-PS2); format: cell-based; settings: Table 5, marked *
Outline: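 Rat/mouse hybrid F11 neuronal cells were transfected with FAD genes, then cultured 67 h with or without HN peptides; mortality was scored by Trypan blue exclusion 72 h post-transfection. Mouse primary cortical neurons were preincubated 16 h with HN, exposed to 25 μM Aβ for 72 h, and viability measured by WST-8 (OD450) and Calcein-AM fluorescence.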

[4] = system: F11 cells transfected with V642I-APP, NL-APP, M146L-PS1 or N141I-PS2 cDNA; format: cell-based, rat/mouse hybrid; settings: each of V642I-APP, read-out: IC50 of suppression of neuronal cell death by FAD genes
Source text: F11 cells, the hybrid of a rat embryonic-day-13 primary cultured primary neuron and a mouse neuroblastoma cell, are one of the best models for primary cultured neurons as they carry representative characteristics of primary neurons, such as generation of action potentials without differentiation by NGF [22]. They have been used in various studies of is neuronal functions. Using these cells, the underlying mechanisms for cytotoxicity by V642I-APP have well been analyzed. Cytotoxicity by V642 mutants of APP has also been confirmed in multiple different systems. F11 cells were grown in Ham's F-12 (GibcoBRL, Gaithersburg, Md.) plus 18% fetal bovine serum (FBS; Hyclone, Logan, Utah) and antibiotics, as described previously. F11 cells (7×10^4 cell/well in a 6-well plate cultured in Ham's F-12 plus 18% FBS for 12-16 hr) were transfected with plasmids encoding FAD genes by lipofection [FAD cDNA 2 μg, LipofectAMINE 4 μl, PLUS reagent 8 μl (GibcoBRL)] in the absence of serum for 3 hr, and were incubated with Ham's F-12 plus 18% FBS for 2 hr. Then, culture media were changed to Ham's F-12 plus 10% FBS with or without HN peptides, and cells were cultured for an additional 67 hr. Seventy-two hr after transfection, cell mortality was measured by Trypan blue exclusion assay, performed as follows. Cells were suspended by pipetting gently, and 50 μl of 0.4% (finally 0.08%) Trypan blue solution (Sigma, St Louis, Mo.) was mixed with 200 μl of the cell suspension at room temperature. Stained cells were counted within 3 min after the mixture with Trypan blue solution.

[5] = Apparent stability of peptides in the culture medium; format: physicochemical; settings: 72-hr incubation of 10 μM peptides in the cultured medium; data not shown
Source text: The Ser^7 residue plays a role different from that of Ser^14. S7A substitution nullified the action of HN, while Ser^7 racemation had no influence. […] Given the fact that EFLIVIKS or EFLIVKS is the established amino acid sequence to form a dimer and that EFLIVIKS alone had no cytoprotective action, it is most likely that Ser^7 is essential for HN to self-dimerize and that self-dimerization of HN is essential for the action of HN. […] This level of stability alterations could not account for the drastic potentiation of the rescue action by the fusion with EFLIVIKS.

[6] = target: T2, (His)6-(S7A)HN; assay: Ni-bead pull-down, anti-FLAG immunoblot
T2 construct: Synthetic peptide, immobilised on Ni-NTA agarose; also called His-S7A
T2 peptide: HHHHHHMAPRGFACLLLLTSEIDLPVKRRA
Method: as §1, with “(His)₆-tagged” for “(His)6-tagged”
Synthetic (His)₆-HN was mixed with synthetic HN-FLAG, and precipitated by Ni-beads. The precipitate was examined with an anti-FLAG antibody for HN-FLAG. […] Under the same conditions, (S7A)HN-FLAG was not precipitated by (His)₆-(S7A)HN. EF-(S7A)HN-FLAG was precipitated by (His)₆-EF-(S7A)HN as efficiently as HN-FLAG precipitation by (His)₆-HN.

T1 sequence (Q8IVG9 whole entry): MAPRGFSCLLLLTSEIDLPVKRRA

MAPRGFSCLLLLTGEIDLPVKRRA [HNG, reference compound]
effect of excess competitor on HN-FLAG precipitation by (His)6-HN [1]: abolished | IC50 [2]: ~0.5 nM | Full protection (minimal concentration that exerted full cytoprotection) [3]: ˜10 nM | IC50 [4]: ~0.03 nM | amount of peptide relative to the amount at time zero [5]: about ⅔

B1: (S7A)HN-DYKDDDDK (S7A-FLAG) (peptide)
peptide: MAPRGFACLLLLTSEIDLPVKRRADYKDDDDK
notes: Synthetic C-terminally FLAG-tagged peptide; also called (S7A)HN-FLAG
binding result [6]: no binding (tested: 1 nmol of each peptide in 0.5 ml)
